Laboratory results taken from patent publication US8338598B2, “Herbicidal pyrido[2,3-B]pyrazines and their use as herbicides” (Syngenta Limited, priority 2008, dated 2012).

Experiments:
Format in all cases: in vivo
Solanum nigrum [1] = experiment: Example B2 herbicidal action, pre-emergence, pots in glasshouse; settings: evaluated after 13 days, 10=total damage to plant, 0=no damage to plant
Procedure: (§1) Seeds of a variety of test species were sown in standard soil in pots. After cultivation for one day (pre-emergence) or after 8 days cultivation (post-emergence) under controlled conditions in a glasshouse (at 24/16° C., day/night; 14 hours light; 65% humidity), the plants were sprayed with an aqueous spray solution derived from the formulation of the technical active ingredient in acetone/water (50:50) solution containing 0.5% Tween 20 (polyoxyethelyene sorbitan monolaurate, CAS RN 9005-64-5). The test plants were then grown in a glasshouse under controlled conditions in a glasshouse (at 24/16° C., day/night; 14 hours light; 65% humidity) and watered twice daily. After 13 days, the test was evaluated (10=total damage to plant; 0=no damage to plant).

Setaria faberi [2] = experiment: as above; settings: evaluated after 13 days, 10=total damage to plant, 0=no damage to plant
Procedure: as §1

Echinochloa crus-galli [3] = experiment: as above; settings: evaluated after 13 days, 10=total damage to plant, 0=no damage to plant
Procedure: as §1

Ipomea hederaceae [4] = experiment: as above; settings: evaluated after 13 days, 10=total damage to plant, 0=no damage to plant
Procedure: as §1

Amaranthus retroflexus [5] = experiment: as above; settings: evaluated after 13 days, 10=total damage to plant, 0=no damage to plant
Procedure: as §1

Solanum nigrum [6] = experiment: Example B2 herbicidal action, post-emergence, pots in glasshouse; settings: evaluated after 13 days, 10=total damage to plant, 0=no damage to plant
Procedure: as §1

Setaria faberi [7] = experiment: as above; settings: evaluated after 13 days, 10=total damage to plant, 0=no damage to plant
Procedure: as §1

Echinochloa crus-galli [8] = experiment: as above; settings: evaluated after 13 days, 10=total damage to plant, 0=no damage to plant
Procedure: as §1

Ipomea hederaceae [9] = experiment: as above; settings: evaluated after 13 days, 10=total damage to plant, 0=no damage to plant
Procedure: as §1

Amaranthus retroflexus [10] = experiment: as above; settings: evaluated after 13 days, 10=total damage to plant, 0=no damage to plant
Procedure: as §1

test plants = experiment: Example B1 herbicidal action, post-emergence, overall statement on the test plants; settings: Example B1 protocol, 1000 g/ha, result in words
Procedure: Seeds of a variety of test species were sown in sterilised standard soil in seed trays each having 96 cells. After cultivation for 8 to 9 days cultivation (post-emergence) under controlled conditions in a climatic chamber (cultivation at 23/17° C., day/night; 13 hours light; 50-60% humidity), the plants were treated with an aqueous spray solution of 1000 mg/l of the active ingredient dissolved in 10% DMSO (dimethyl sulfoxide, CAS RN 67-68-5) as a solvent, equivalent to 1000 g/ha. The plants were grown in the climatic chamber after application at (24/19° C., day/night; 13 hours light; 50-60% humidity) and watered twice daily. After 9 days until the test was evaluated (10=total damage to plant, 0=no damage to plant)

CC(C)C(=O)Oc1c(-c2nn(C)nc2C(F)(F)F)c(=O)n(CC(F)F)c2nccnc12 [Compound B29]
SOLNI, damage to plant (Solanum nigrum [1]; 1000 g/ha): 2
SETFA, damage to plant (Setaria faberi [2]; 1000 g/ha): 3
ECHCG, damage to plant (Echinochloa crus-galli [3]; 1000 g/ha): 1
IPOHE, damage to plant (Ipomea hederaceae [4]; 1000 g/ha): 1
AMARE, damage to plant (Amaranthus retroflexus [5]; 1000 g/ha): 4
SOLNI, damage to plant (Solanum nigrum [6]; 1000 g/ha): 7
SETFA, damage to plant (Setaria faberi [7]; 1000 g/ha): 7
ECHCG, damage to plant (Echinochloa crus-galli [8]; 1000 g/ha): 3
IPOHE, damage to plant (Ipomea hederaceae [9]; 1000 g/ha): 7
AMARE, damage to plant (Amaranthus retroflexus [10]; 1000 g/ha): 8

CC(C)C(=O)Oc1c(-c2nn(C)nc2C(F)(F)F)c(=O)[nH]c2nccnc12 [Compound B28]
SOLNI, damage to plant (Solanum nigrum [1]; 1000 g/ha): 0
SETFA, damage to plant (Setaria faberi [2]; 1000 g/ha): 0
ECHCG, damage to plant (Echinochloa crus-galli [3]; 1000 g/ha): 0
IPOHE, damage to plant (Ipomea hederaceae [4]; 1000 g/ha): 0
AMARE, damage to plant (Amaranthus retroflexus [5]; 1000 g/ha): 7
SOLNI, damage to plant (Solanum nigrum [6]; 1000 g/ha): 1
SETFA, damage to plant (Setaria faberi [7]; 1000 g/ha): 1
ECHCG, damage to plant (Echinochloa crus-galli [8]; 1000 g/ha): 0
IPOHE, damage to plant (Ipomea hederaceae [9]; 1000 g/ha): 0
AMARE, damage to plant (Amaranthus retroflexus [10]; 1000 g/ha): 0

Cc1nc(Cl)sc1-c1c(O)c2nccnc2[nH]c1=O [Compound B1, 7-(2-chloro-4-methyl-thiazol-5-yl)-8-hydroxy-5H-pyrido[2,3-b]pyrazin-6-one]
damage to the test plants (test plants): little or no damage

CS(=O)(=O)Oc1c(-c2ncc(Cl)cc2Cl)c(=O)[nH]c2nccnc12 [Compound A4, methanesulfonic acid 7-(3,5-dichloro-pyrid-2-yl)-6-oxo-5,6-dihydro-pyrido[2,3-b]pyrazin-8-yl ester]
damage to the test plants (test plants): little or no damage

CC(C)(C)C(=O)Oc1c(-c2c(Cl)cncc2Cl)c(=O)n(CC(F)F)c2nccnc12 [Compound A11, 2,2-Dimethyl-propionic acid 7-(3,5-dichloro-pyrid-4-yl)-5-(2,2-difluoro-ethyl)-6-oxo-5,6-dihydro-pyrido[2,3-b]pyrazin-8-yl ester]
SOLNI, damage to plant (Solanum nigrum [1]; 1000 g/ha): 8
SETFA, damage to plant (Setaria faberi [2]; 1000 g/ha): 7
ECHCG, damage to plant (Echinochloa crus-galli [3]; 1000 g/ha): 8
IPOHE, damage to plant (Ipomea hederaceae [4]; 1000 g/ha): 5
AMARE, damage to plant (Amaranthus retroflexus [5]; 1000 g/ha): 8
SOLNI, damage to plant (Solanum nigrum [6]; 1000 g/ha): 8
SETFA, damage to plant (Setaria faberi [7]; 1000 g/ha): 8
ECHCG, damage to plant (Echinochloa crus-galli [8]; 1000 g/ha): 8
IPOHE, damage to plant (Ipomea hederaceae [9]; 1000 g/ha): 8
AMARE, damage to plant (Amaranthus retroflexus [10]; 1000 g/ha): 9

CC(C)(C)C(=O)Oc1c(-c2c(Cl)ccnc2Cl)c(=O)[nH]c2nccnc12 [Compound A17, 2,2-Dimethyl-propionic acid 7-(2,4-dichloro-pyrid-3-yl)-6-oxo-5,6-dihydro-pyrido[2,3-b]pyrazin-8-yl ester]
damage to the test plants (test plants): little or no damage

Cn1nc(C(F)(F)F)c(-c2c(O)c3nccnc3n(CC(F)F)c2=O)c1OC(F)F [Compound B25, 7-(5-difluoromethoxy-1-methyl-3-trifluoromethyl-1H-pyrazol-4-yl)-5-(2,2-difluoro-ethyl)-8-hydroxy-5H-pyrido[2,3-b]pyrazin-6-one]
SOLNI, damage to plant (Solanum nigrum [1]; 1000 g/ha): 7
SETFA, damage to plant (Setaria faberi [2]; 1000 g/ha): 8
ECHCG, damage to plant (Echinochloa crus-galli [3]; 1000 g/ha): 8
IPOHE, damage to plant (Ipomea hederaceae [4]; 1000 g/ha): 6
AMARE, damage to plant (Amaranthus retroflexus [5]; 1000 g/ha): 10
SOLNI, damage to plant (Solanum nigrum [6]; 1000 g/ha): 10
SETFA, damage to plant (Setaria faberi [7]; 1000 g/ha): 8
ECHCG, damage to plant (Echinochloa crus-galli [8]; 1000 g/ha): 8
IPOHE, damage to plant (Ipomea hederaceae [9]; 1000 g/ha): 8
AMARE, damage to plant (Amaranthus retroflexus [10]; 1000 g/ha): 8

Cc1cc(-c2c(OC(=O)C(C)(C)C)c3nccnc3[nH]c2=O)on1 [Compound B17]
damage to the test plants (test plants): little or no damage

O=c1[nH]c2nccnc2c(O)c1-c1ccno1 [Compound B15]
damage to the test plants (test plants): little or no damage

Cc1cc(-c2c(O)c3nccnc3[nH]c2=O)on1 [Compound B13]
damage to the test plants (test plants): little or no damage

Cc1noc(-c2c(OC(=O)C(C)C)c3nccnc3n(C)c2=O)n1 [Compound B6, isobutyric acid 5-methyl-7-(3-methyl-1,2,4-oxadiazol-5-yl)-6-oxo-5,6-dihydro-pyrido[2,3-b]pyrazin-8-yl ester]
damage to the test plants (test plants): little or no damage

CCn1c(=O)c(-c2cc(C)no2)c(OC(=O)C(C)(C)C)c2nccnc21 [Compound B20]
damage to the test plants (test plants): little or no damage

Cc1cc(-c2c(OC(=O)C(C)C)c3nccnc3[nH]c2=O)on1 [Compound B16]
damage to the test plants (test plants): little or no damage

Cn1c(=O)c(-c2c(Cl)cncc2Cl)c(OC(=O)C(C)(C)C)c2nccnc21 [Compound A9, 2,2-Dimethyl-propionic acid 7-(3,5-dichloro-pyrid-4-yl)-5-methyl-6-oxo-5,6-dihydro-pyrido[2,3-b]pyrazin-8-yl ester]
SOLNI, damage to plant (Solanum nigrum [1]; 1000 g/ha): 1
SETFA, damage to plant (Setaria faberi [2]; 1000 g/ha): 0
ECHCG, damage to plant (Echinochloa crus-galli [3]; 1000 g/ha): 5
IPOHE, damage to plant (Ipomea hederaceae [4]; 1000 g/ha): 5
AMARE, damage to plant (Amaranthus retroflexus [5]; 1000 g/ha): 0
SOLNI, damage to plant (Solanum nigrum [6]; 1000 g/ha): 8
SETFA, damage to plant (Setaria faberi [7]; 1000 g/ha): 4
ECHCG, damage to plant (Echinochloa crus-galli [8]; 1000 g/ha): 7
IPOHE, damage to plant (Ipomea hederaceae [9]; 1000 g/ha): 8
AMARE, damage to plant (Amaranthus retroflexus [10]; 1000 g/ha): 8

CC(C)C(=O)Oc1c(-c2ncc(Cl)cc2Cl)c(O)nc2nccnc12 [Compound A5, isobutyric acid 7-(3,5-dichloro-pyrid-2-yl)-6-oxo-5,6-dihydro-pyrido[2,3-b]pyrazin-8-yl ester]
damage to the test plants (test plants): little or no damage

CC(C)C(=O)Oc1c(-c2ccc(C(F)(F)F)nc2Cl)c(=O)n(CC(F)F)c2nccnc12 [Compound A30]
SOLNI, damage to plant (Solanum nigrum [1]; 250 g/ha): 1
SETFA, damage to plant (Setaria faberi [2]; 250 g/ha): 0
ECHCG, damage to plant (Echinochloa crus-galli [3]; 250 g/ha): 3
IPOHE, damage to plant (Ipomea hederaceae [4]; 250 g/ha): 0
AMARE, damage to plant (Amaranthus retroflexus [5]; 250 g/ha): 1
SOLNI, damage to plant (Solanum nigrum [6]; 250 g/ha): 6
SETFA, damage to plant (Setaria faberi [7]; 250 g/ha): 4
ECHCG, damage to plant (Echinochloa crus-galli [8]; 250 g/ha): 1
IPOHE, damage to plant (Ipomea hederaceae [9]; 250 g/ha): 6
AMARE, damage to plant (Amaranthus retroflexus [10]; 250 g/ha): 9

CCOC(=O)Oc1c(-c2ncc(Cl)cc2Cl)c(=O)[nH]c2nccnc12 [Compound A3, Carbonic acid 7-(3,5-dichloro-pyrid-2-yl)-6-oxo-5,6-dihydro-pyrido[2,3-b]pyrazin-8-yl ester ethyl ester]
damage to the test plants (test plants): little or no damage

Cc1cc(-c2c(O)c3nccnc3[nH]c2=O)[nH]n1 [Compound B14]
damage to the test plants (test plants): little or no damage

Cc1cc(-c2c(OC(=O)C(C)(C)C)c3nccnc3[nH]c2=O)[nH]n1 [Compound B19]
damage to the test plants (test plants): little or no damage

CC(C)C(=O)Oc1c(-c2cc(C(F)(F)F)no2)c(=O)[nH]c2nccnc12 [Compound B7, isobutyric acid 6-hydroxy-7-(3-trifluoromethyl-isoxazol-5-yl)-pyrido[2,3-b]pyrazin-8-yl ester]
damage to the test plants (test plants): little or no damage

O=c1[nH]c2nccnc2c(O)c1-c1ncc(Cl)cc1F [Compound A28]
damage to the test plants (test plants): little or no damage

CCOc1c(-c2cc(C)n(CC)n2)c(=O)n(CC)c2nccnc12 [Compound B22]
damage to the test plants (test plants): little or no damage

O=c1[nH]c2nccnc2c(O)c1-c1ncc(C(F)(F)F)cc1Cl [Compound A29]
damage to the test plants (test plants): little or no damage

Cc1cc(-c2c(OC(=O)C(C)(C)C)c3nccnc3n(C)c2=O)n2nc(C)cc2n1 [Compound C3]
damage to the test plants (test plants): little or no damage

Cc1cc(-c2c(OC(=O)C(C)(C)C)c3nccnc3[nH]c2=O)n2nc(C)cc2n1 [Compound C2]
damage to the test plants (test plants): little or no damage

Cc1cc(-c2c(O)c3nccnc3[nH]c2=O)n2nc(C)cc2n1 [Compound C1]
damage to the test plants (test plants): little or no damage

CCn1c(=O)c(-c2cc(C)no2)c(OC(=O)C(C)C)c2nccnc21 [Compound B21]
damage to the test plants (test plants): little or no damage

Cc1cc(-c2c(OC(=O)C(C)C)c3nccnc3[nH]c2=O)[nH]n1 [Compound B18]
damage to the test plants (test plants): little or no damage

Oc1nc2nccnc2c(O)c1-c1ncc(Cl)cc1Cl [Compound A1, 7-(3,5-dichloro-pyrid-2-yl)-pyrido[2,3-b]pyrazine-6,8-diol]
damage to the test plants (test plants): little or no damage
